Experimental data reported in patent US8609644B2, “Amino derivatives of androstanes and androstenes as medicaments for cardiovascular disorders” (priority 2006, dated 2013).
Where a name gives a salt, the structure may show the parent alone. Read-outs that look alike come from different tables or passages of the source.

Legend:
Na+, K+-ATPase = Na+, K+-ATPase (Canis lupus familiaris, UniProt P50997); assay: biochemical; design: species or system dog; conditions: read-out: Na+, K+-ATPase Inhibition IC50
[1] = system: hypertensive ouabain-sensitive rats (os rats); assay: Systolic blood pressure fall in hypertensive ouabain-sensitive rats (OS rats); assay type: in vivo, rat; conditions: 10 μg/kg/day by mouth for four weeks; for HR / SBP: measured 6 hours after the treatment; for SBP: tail-cuff
Experimental: The ability of these compounds to lower blood pressure was tested by using an animal model with induced hypertension, in particular, rats made hypertensive by chronic infusion of ouabain, according to Ferrari P., et al. J. Pharm. Exp. Ther. 1998, 285, 83-94.
The procedure adopted to test the antihypertensive activity of the compounds on the above mentioned model was the following: systolic blood pressure (SBP) and heart rate (HR) were measured by an indirect tail-cuff method. The blood pressure lowering effect was measured in hypertensive ouabain-sensitive rats. The compound, suspended in Methocel 0.5% (w/v), was administered daily at the dose of 10 μg/kg/day by mouth for four weeks. SBP and HR were measured weekly 6 hours after the treatment. The comparison are ouabain sensitive rats (OS rats) and non hypertensive rats (control), both treated only with Methocel 0.5% (w/v). As shown in the following Table 4, treatment with a compound of the present invention lowers the blood pressure of OS rats (170 mm Hg) to almost the level of control rats (150 mm Hg).

fresh rat hepatocytes = assay: Metabolism in fresh rat hepatocytes; conditions: fresh rat hepatocytes; test item nominal concentration 45 μM
anesthetized guinea-pig = assay: Inotropic effect and lethal dose, slow intravenous infusion (over 90 minutes) in anesthetized guinea-pig; conditions: for Lethal dose/ED80 (safety ratio): calculated in the died animals; for Maximum dose infused: maximum dose infused in the survived animals
[2] = slow i.v. infusion over 90 minutes

SMILES	IC50 (Na+, K+-ATPase; dog kidney enzyme) [µM]	HR % beats/min [1]	SBP - % (fall vs OS rats) [1] [%]	SBP - mm Hg (fall vs OS rats) [1] [mm Hg]	HR [1] [beats/min.]	SBP [1] [mm Hg]	% of compound metabolized after 60 minutes (fresh rat hepatocytes) [%]	ED80 (anesthetized guinea-pig; Cavia porcellus, iv, 1.5 h, read-out: ED80 (inotropic potency, dose increasing +dP/dTmax by 80%)) [µmol/kg]	ED (max) (anesthetized guinea-pig; Cavia porcellus, iv, 1.5 h, read-out: EDmax (dose inducing maximum positive inotropic effect)) [µmol/kg]	Emax (anesthetized guinea-pig; Cavia porcellus, iv, 1.5 h, read-out: Emax % increase in +dP/dTmax) [%]	Lethal dose/ED80 (safety ratio) (anesthetized guinea-pig)	Maximum dose infused (anesthetized guinea-pig) [µmol/kg]	Dead/treated (anesthetized guinea-pig; [2])	IC50 (Na+, K+-ATPase) [µM]	% decrease from Emax after 20 min from the end of the infusion (anesthetized guinea-pig; duration of the inotropic effect) [%]	Emax % increase in +dP/dTmax (anesthetized guinea-pig; maximum increase in contractile force, slow i.v. infusion over 90 minutes) [%]	ED80 (inotropic potency, dose increasing +dP/dTmax by 80%) (anesthetized guinea-pig; [2]) [µmol/kg]	EDmax (dose inducing maximum positive inotropic effect) (anesthetized guinea-pig; [2]) [µmol/kg]
CON=C1CC2CC(=NOCCN)CCC2(C)C2CCC3(C)C(=O)CCC3C12 (mixture of isomers) [I-bt, (E,Z)-3-(2-Aminoethoxyimino)-7-(E)-methoxyiminoandrostan-17-one fumarate]	12	0%	8.3	14.2	368	155.8												
CC12CCC3C(C(O)C(CO)C4CC(=NOCCN)CCC43C)C1CCC2=O (mixture of isomers) [I-ej, (E,Z) 3-(2-Aminoethoxyimino)-6α-hydroxymethyl-7α-hydroxyandrostane-17-one hydrochloride]	0.022						5	0.34	7.55	258	50	25.0	3/3					
C[C@]12CCC(=NOCCN)CC1[C@@H](NC=O)C[C@@H]1[C@@H]2CC[C@]2(C)C(=O)CC[C@@H]12.O=C(O)/C=C/C(=O)O (stereo partly drawn) [I-be, (E,Z) 3-(2-Aminoethoxyimino)-6α-formamidoandrostan-17-one fumarate]							16				32.8	50.4	1/5	0.16	37	174	1.99	27.4
COC1CC2CC(=NOCCN)CCC2(C)C2CCC3(C)C(=O)CCC3C12 (mixture of isomers) [I-ee, (E,Z) 3-(2-Aminoethoxyimino)-7α-methoxyandrostane-17-one hemifumarate]		+5.1%	11.0	19.0	381	151.0	22							14				
